# Reference: US20240012010A1, “METHODS OF MONITORING ALPHA-1 ANTITRYPSIN (AAT) DEFICIENCY BY MEASURING POLYMERISED AAT” (Vertex Pharmaceuticals Incorporated, priority 2020, published 2024)
# Target: T1, AAT polymer (Z variant of the human allele of AAT) (Homo sapiens, UniProt P01009, E366K/V237A)
# T1 construct: At study termination, plasma was collected via cardiac puncture; from tissue; host or cells: plasma of transgenic PiZ mice (C57BL/6 background) carrying the human SERPINA1 Z gene
# Assay: Pharmacodynamic effect of Compound 2 treatment on polymer levels in a PiZ mouse model (polymer sandwich ELISA of plasma)
# Assay type: in vivo
# Settings: male PiZ hemizygous mice
# Protocol: Eleven week-old male PiZ mice, hemizygous for the Z variant of the human allele of AAT, were orally administered a suspension of either vehicle or Compound 2 QD at 50 and 100 mg/kg/day for 72 hours or 5, 16, 50, and 100 mg/kg/day for 28 days. At study termination, plasma was collected via cardiac puncture and liver tissue was collected and preserved in 10% neutral buffered formalin.
# Liver polymer staining was assessed as the % area of liver tissue that stains positively by monoclonal antibody 2C1 immunohistochemistry.
# High bind EIA/RIA microplates (Costar, 3590) were coated with 100 μL mouse monoclonal anti-human AAT polymer antibody (Hycult Biotech, HM2289, clone 2C1) diluted to 2 μg/mL in carbonate-bicarbonate buffer (0.2M, pH 9.4) and incubated for 90 minutes at 37° C. (while shaking) or alternatively overnight (up to 72 hours) at 4° C. (still). […] Following color development, 100 μL 1N sulfuric acid was added to stop the reaction and absorbance was immediately measured at 450 nm and 650 nm for background subtraction with a microplate reader (Molecular Devices, SpectraMax M3). […]
# T1 sequence (P01009 25-418 V237A/E366K): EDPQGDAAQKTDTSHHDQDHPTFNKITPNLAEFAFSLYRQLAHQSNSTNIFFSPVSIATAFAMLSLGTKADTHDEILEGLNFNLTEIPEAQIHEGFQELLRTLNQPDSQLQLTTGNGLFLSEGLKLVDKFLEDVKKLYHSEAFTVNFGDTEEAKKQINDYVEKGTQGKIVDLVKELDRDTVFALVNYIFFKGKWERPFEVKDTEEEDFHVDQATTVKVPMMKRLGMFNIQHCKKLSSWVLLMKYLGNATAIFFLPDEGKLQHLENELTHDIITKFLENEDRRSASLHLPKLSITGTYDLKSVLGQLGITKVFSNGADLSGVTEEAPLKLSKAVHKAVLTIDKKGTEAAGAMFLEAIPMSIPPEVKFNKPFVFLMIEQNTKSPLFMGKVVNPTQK
smiles,measurement,setting,value
O=C(O)c1ccc(-c2c(C3CCOCC3)n(-c3ccc(F)c(F)c3)c3cc4cn[nH]c4cc23)cc1 [Compound 2],AAT plasma polymer levels,"QD 5, 16, 50 and 100 mg/kg/day PO for 28 days, vs vehicle (FIG. 5B)",dose response decrease
same,AAT plasma polymer levels,"QD 50 and 100 mg/kg/day PO for 72 hours, vs vehicle (FIG. 5A)",dose response decrease
